Assay results: US6355799B1, “Substituted benzene compounds, process for their preparation, and herbicidal and defoliant compositions containing them” (ISK Americas Incorporated, priority 1997, dated 2002)

Columns and labels:
Format in all cases: in vivo
[1] = test system: redroot pigweed (Amaranthus retroflexus, AMARE); experiment: Pre-emerge test, greenhouse herbicide activity screening; settings: pre-emerge, 14 days after application, scale 0-100
In short: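 Plants grown in 10 cm pots of sandy loam mix received acetone-dissolved compounds through a moving flat-fan nozzle. Doses ranged from 15 to 1000 g ai/ha. Pre-emerge pots were seeded one day earlier, post-emerge pots 8–21 days earlier. Fourteen days on, each pot was graded 0–100 for damage.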

[2] = test system: barnyardgrass (Echinochloa crus-galli, ECHCG); experiment: as above; settings: pre-emerge, 14 days after application, scale 0-100
In short: (§1)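 Herbicidal damage is scored 0 (none) to 100 (complete plant death) two weeks after a simulated field spray. Rates span 15–1000 g ai/ha, delivered in acetone at 187 l/ha. For post-emergence treatments, plants have 2–3 leaves and the spray carries 0.25% v/v non-ionic surfactant.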

[3] = test system: green foxtail (Setaria viridis, SETVI); experiment: as above; settings: pre-emerge, 14 days after application, scale 0-100
In short: as §1

[4] = test system: ivyleaf morningglory (Ipomoea hederacea, IPOHE); experiment: as above; settings: pre-emerge, 14 days after application, scale 0-100
In short: as §1

[5] = test system: johnsongrass (Sorghum halepense, SORHA); experiment: as above; settings: pre-emerge, 14 days after application, scale 0-100
In short: as §1

[6] = test system: lambsquarters (Chenopodium album, CHEAL); experiment: as above; settings: pre-emerge, 14 days after application, scale 0-100
In short: as §1

[7] = test system: large crabgrass (Digitaria sanguinalis, DIGSA); experiment: as above; settings: pre-emerge, 14 days after application, scale 0-100
In short: as §1

[8] = test system: sicklepod (Cassia obtusifolia, CASOB); experiment: as above; settings: pre-emerge, 14 days after application, scale 0-100
In short: as §1

[9] = test system: velvetleaf (Abutilon theophrasti, ABUTH); experiment: as above; settings: pre-emerge, 14 days after application, scale 0-100
In short: as §1

[10] = test system: field corn (Zea mays L., var. Dekalb 535, CORN); experiment: Pre-emerge test, crop safety; settings: pre-emerge, 14 days after application, scale 0-100
In short: (§2)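 Applied at 15–1000 g ai/ha from acetone in 187 l/ha spray volume. Post-emergence applications included 0.25% v/v non-ionic surfactant and reached plants sown 8–21 days before. Pre-emergence applications were incorporated by surface watering. Efficacy or crop damage was rated on a 0–100 scale after 14 days.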

[11] = test system: upland rice (Oryza sp., var. Tebonnet, RICE); experiment: Pre-emerge test, crop safety; settings: pre-emerge, 14 days after application, scale 0-100
In short: as §2

[12] = test system: barnyardgrass (Echinochloa crus-galli, ECHCG); experiment: Post-emerge test, greenhouse herbicide activity screening; settings: post-emerge, 14 days after application, rating scale 0-100
In short: (§3)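 Compounds in acetone were track-sprayed at 15–1000 g ai/ha: pre-emergence onto soil sown the previous day, then top-watered to incorporate and later bottom-watered; post-emergence onto 2–3 leaf plants with 0.25% v/v surfactant, bottom-watered only. Ratings on a 0–100 phytotoxicity scale were taken at day 14.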

[13] = test system: common ragweed (Ambrosia artemisizfolia L., AMBEL); experiment: as above; settings: post-emerge, 14 days after application, rating scale 0-100
In short: as §3

[14] = test system: green foxtail (Setaria viridis, SETVI); experiment: as above; settings: post-emerge, 14 days after application, rating scale 0-100
In short: as §3

[15] = test system: ivyleaf morningglory (Ipomoea hederacea, IPOHE); experiment: as above; settings: post-emerge, 14 days after application, rating scale 0-100
In short: as §3

[16] = test system: johnsongrass (Sorghum halepense, SORHA); experiment: as above; settings: post-emerge, 14 days after application, rating scale 0-100
In short: as §3

[17] = test system: lambsquarters (Chenopodium album, CHEAL); experiment: as above; settings: post-emerge, 14 days after application, rating scale 0-100
In short: as §3

[18] = test system: large crabgrass (Digitaria sanguinalis, DIGSA); experiment: as above; settings: post-emerge, 14 days after application, rating scale 0-100
In short: as §3

[19] = test system: redroot pigweed (Amaranthus retroflexus, AMARE); experiment: as above; settings: post-emerge, 14 days after application, rating scale 0-100
In short: as §3

[20] = test system: sicklepod (Cassia obtusifolia, CASOB); experiment: as above; settings: post-emerge, 14 days after application, rating scale 0-100
In short: as §3

[21] = test system: velvetleaf (Abutilon theophrasti, ABUTH); experiment: as above; settings: post-emerge, 14 days after application, rating scale 0-100
In short: as §3

[22] = test system: field corn (Zea mays L., var. Dekalb 535, CORN); experiment: Post-emerge test, crop safety; settings: post-emerge, 14 days after application, rating scale 0-100
In short: as §1

[23] = test system: upland rice (Oryza sp., var. Tebonnet, RICE); experiment: Post-emerge test, crop safety; settings: post-emerge, 14 days after application, rating scale 0-100
In short: as §1

COc1c(Cl)cc(F)c(-n2c(=O)cc(C(F)(F)F)n(C)c2=O)c1NC(=O)c1ccc2c(Br)cccc2c1 [2-158]
phytotoxicity rating AMARE ([1]; 63 g ai/ha): 100 | phytotoxicity rating AMARE ([1]; 250 g ai/ha): 100 | phytotoxicity rating ECHCG ([2]; 63 g ai/ha): 50 | phytotoxicity rating ECHCG ([2]; 250 g ai/ha): 80 | phytotoxicity rating SETVI ([3]; 63 g ai/ha): 0 | phytotoxicity rating SETVI ([3]; 250 g ai/ha): 95 | phytotoxicity rating IPOHE ([4]; 63 g ai/ha): 0 | phytotoxicity rating IPOHE ([4]; 250 g ai/ha): 0 | phytotoxicity rating SORHA ([5]; 63 g ai/ha): 0 | phytotoxicity rating SORHA ([5]; 250 g ai/ha): 20 | phytotoxicity rating CHEAL ([6]; 63 g ai/ha): 100 | phytotoxicity rating CHEAL ([6]; 250 g ai/ha): 100 | phytotoxicity rating DIGSA ([7]; 63 g ai/ha): 80 | phytotoxicity rating DIGSA ([7]; 250 g ai/ha): 95 | phytotoxicity rating CASOB ([8]; 63 g ai/ha): 0 | phytotoxicity rating CASOB ([8]; 250 g ai/ha): 0 | phytotoxicity rating ABUTH ([9]; 63 g ai/ha): 80 | phytotoxicity rating ABUTH ([9]; 250 g ai/ha): 95 | phytotoxicity rating CORN (crop damage) ([10]; 63 g ai/ha): 0 | phytotoxicity rating CORN (crop damage) ([10]; 250 g ai/ha): 0 | phytotoxicity rating RICE (crop damage) ([11]; 63 g ai/ha): 0 | phytotoxicity rating RICE (crop damage) ([11]; 250 g ai/ha): 10 | ECHCG phytotoxicity rating ([12]; 63 g ai/ha): 0 | ECHCG phytotoxicity rating ([12]; 250 g ai/ha): 50 | AMBEL phytotoxicity rating ([13]; 63 g ai/ha): 50 | AMBEL phytotoxicity rating ([13]; 250 g ai/ha): 100 | SETVI phytotoxicity rating ([14]; 63 g ai/ha): 10 | SETVI phytotoxicity rating ([14]; 250 g ai/ha): 70 | IPOHE phytotoxicity rating ([15]; 63 g ai/ha): 20 | IPOHE phytotoxicity rating ([15]; 250 g ai/ha): 80 | SORHA phytotoxicity rating ([16]; 63 g ai/ha): 0 | SORHA phytotoxicity rating ([16]; 250 g ai/ha): 0 | CHEAL phytotoxicity rating ([17]; 63 g ai/ha): 90 | CHEAL phytotoxicity rating ([17]; 250 g ai/ha): 95 | DIGSA phytotoxicity rating ([18]; 63 g ai/ha): 0 | DIGSA phytotoxicity rating ([18]; 250 g ai/ha): 30 | AMARE phytotoxicity rating ([19]; 63 g ai/ha): 100 | AMARE phytotoxicity rating ([19]; 250 g ai/ha): 100 | CASOB phytotoxicity rating ([20]; 63 g ai/ha): 90 | CASOB phytotoxicity rating ([20]; 250 g ai/ha): 100 | ABUTH phytotoxicity rating ([21]; 63 g ai/ha): 95 | ABUTH phytotoxicity rating ([21]; 250 g ai/ha): 100 | CORN phytotoxicity rating (crop damage) ([22]; 63 g ai/ha): 0 | CORN phytotoxicity rating (crop damage) ([22]; 250 g ai/ha): 0 | RICE phytotoxicity rating (crop damage) ([23]; 63 g ai/ha): 20 | RICE phytotoxicity rating (crop damage) ([23]; 250 g ai/ha): 60
